Results from US20210315810A1, “COMPOSITION CONTAINING A MUCOLYTIC AGENT FOR THE TREATMENT OF MUCUS HYPERSECRETION AND A DEVICE FOR THE DOSING THEREOF” (SOFAR S.P.A., priority 2018, published 2021).

Experiment: Viscosity of cystic fibrosis mucus before and after incubation with Compositions 5-12 (Experimental Part II)
Design: species or system human
Conditions: mucus from patients, in vitro

CC(=O)N[C@@H](CS)C(=O)O [N-acetylcysteine, 2R-acetamido-3-sulfanylpropanoic acid]
Effect on viscosity of bronchial mucus (in words): effective at reducing the viscosity of bronchial mucus
